From patent US20060171969A1, “Oral pharmaceutical forms of liquid drugs having improved bioavailability” (priority 2002, published 2006)

Assay: In man pharmacokinetics of oral NO-diclofenac sachets (plasma, LC/MS/MS)
Format: in vivo
Conditions: 75, 100 and 150 mg sachets of example 2, oral; 0.25-32 h
Procedure: In man evaluation of pharmacokinetic and pharmacodynamic parameters of the oral NO-diclofenac formulation described in example 2 (sachets).
Six healthy fastened patients were administered with 75, 100 and 150 mg NO-Diclofenac sachets formulated as described in example 2.
In order to evaluate the pharmacokinetic parameters, blood samples were taken at 0.25, 0.5, 1, 2, 3, 4, 5, 6, 8, 10, 12, 16, 24 and 32 hours after administration of the pharmaceutical formulation. The active ingredient NO-diclofenac and its metabolites diclofenac and the hydroxyderivative 4-OH-diclofenac were dosed in plasma by a LC/MS/MS method, previously validated. NO-diclofenac was not found in the samples at any dosage. The pharmacokinetic parameters of plasma levels obtained for diclofenac (D) and the 4-hydroxydiclofenac (40H-Diclofenac, 40H-D) are reported in Table 2.

O=C(Cc1ccccc1Nc1c(Cl)cccc1Cl)OCCCCO[N+](=O)[O-] [NO-diclofenac, 2-[(2,6-dichlorophenyl)amino]benzeneacetic acid 4-(nitrooxy)butyl ester]
NO-diclofenac (unchanged) in plasma samples: not found
